The results in this text go back to ChEMBL document CHEMBL5120894, “Isolation, Biosynthetic Investigation, and Biological Evaluation of Maniwamycin G, an Azoxyalkene Compound from Streptomyces sp. TOHO-M025” (J Nat Prod, 2022).

≈ marks a conversion by molar mass, not a printed value. Calls of active or inactive are those of the source. The calls are words filed in the database; no cut-off is given here.

Assay [1] in a line: Inhibition of quorum sensing system in Chromobacterium violaceum CV026 assessed as reduction in violacein production incubated for 24 hrs.
Assay [2] is described as follows: Inhibition of quorum sensing system in Chromobacterium violaceum CV026 assessed as reduction in violacein production at 1 mg/ml incubated for 24 hrs relative to control.

By IC50 is commonly meant the concentration that gives 50% inhibition. `CCCC/C=C/[N+]([O-])=N/[C@H](C)[C@@H](C)O`: the IC50 in assay [1] is 120 µg/mL (≈ 599 µM).
For the molecule `CCCC/C=C/[N+]([O-])=N/C(C)C(O)C(N)=O` (stereo not given), the half-maximal inhibitory concentration (IC50) in assay [1] turned out to be 500 µg/mL (≈ 2180 µM).
Turning to `CCCC/C=C/[N+]([O-])=N/[C@H](C)[C@H](C)O`, in assay [1], the IC50 came to 120 µg/mL (≈ 599 µM).
Usually inhibition stands for the share of the control response that was lost under treatment. Turning to `CCCC/C=C/[N+]([O-])=N/[C@H](C)[C@H](O)CC(=O)OC`, in assay [2], the inhibition came out at 40%.
As for `CCCC(O)/C=C/[N+]([O-])=N/C(C)C(C)O` (stereo not given), the inhibition result in assay [1] is “Active”.
